Tests used:
Assay in all cases: KINOMEscan competition binding
Settings in all cases: compound 1.0 µM
CDK3 (human) = CDK3 (human) (UniProt Q00526)
MUSK (human) = MUSK (human) (UniProt O15146)
PRKCE (human) = PRKCE (human) (UniProt Q02156)
MLTK (human) = MLTK (human) (UniProt Q9NYL2)
MARK1 (human) = MARK1 (human) (UniProt Q9P0L2)
[1] = tested on: PIK3CA (human), P42336 [C420R]
DAPK1 (human) = DAPK1 (human) (UniProt P53355)
SIK2 (human) = SIK2 (human) (UniProt Q9H0K1)
PRKCQ (human) = PRKCQ (human) (UniProt Q04759)
PIK3CA (human) = PIK3CA (human) (UniProt P42336)
[2] = tested on: KIT (human), P10721 [D816V]
FLT3 (human) = FLT3 (human) (UniProt P36888)
NEK11 (human) = NEK11 (human) (UniProt Q8NG66)
PRKD1 (human) = PRKD1 (human) (UniProt Q15139)
MAPK3 (human) = MAPK3 (human) (UniProt P27361)
PI4KB (human) = PI4KB (human) (UniProt Q9UBF8)
CAMK2G (human) = CAMK2G (human) (UniProt Q13555)
EPHB6 (human) = EPHB6 (human) (UniProt O15197)
RAF1 (human) = RAF1 (human) (UniProt P04049)
BMPR2 (human) = BMPR2 (human) (UniProt Q13873)
CDC42BPA (human) = CDC42BPA (human) (UniProt Q5VT25)
RIOK2 (human) = RIOK2 (human) (UniProt Q9BVS4)
STK16 (human) = STK16 (human) (UniProt O75716)
PIM1 (human) = PIM1 (human) (UniProt P11309)
[3] = tested on: LRRK2 (human), Q5S007 [G2019S]
NUAK2 (human) = NUAK2 (human) (UniProt Q9H093)
HIPK3 (human) = HIPK3 (human) (UniProt Q9H422)
TAOK2 (human) = TAOK2 (human) (UniProt Q9UL54)
STK17A (human) = STK17A (human) (UniProt Q9UEE5)
MAPKAPK2 (human) = MAPKAPK2 (human) (UniProt P49137)
MAP3K15 (human) = MAP3K15 (human) (UniProt Q6ZN16)
FRK (human) = FRK (human) (UniProt P42685)
PLK1 (human) = PLK1 (human) (UniProt P53350)
MAPK15 (human) = MAPK15 (human) (UniProt Q8TD08)
PIK3C2B (human) = PIK3C2B (human) (UniProt O00750)
EPHB4 (human) = EPHB4 (human) (UniProt P54760)
EPHB2 (human) = EPHB2 (human) (UniProt P29323)
ZAP70 (human) = ZAP70 (human) (UniProt P43403)
TAOK3 (human) = TAOK3 (human) (UniProt Q9H2K8)
[4] = tested on: PIK3CA (human), P42336 [H1047L]
IRAK4 (human) = IRAK4 (human) (UniProt Q9NWZ3)
LIMK2 (human) = LIMK2 (human) (UniProt P53671)
[5] = tested on: EGFR (human), P00533 [G719S]

Measured: kinase still bound, per cent of control

Chain of PLK1 (human) (P53350 whole entry, looked up): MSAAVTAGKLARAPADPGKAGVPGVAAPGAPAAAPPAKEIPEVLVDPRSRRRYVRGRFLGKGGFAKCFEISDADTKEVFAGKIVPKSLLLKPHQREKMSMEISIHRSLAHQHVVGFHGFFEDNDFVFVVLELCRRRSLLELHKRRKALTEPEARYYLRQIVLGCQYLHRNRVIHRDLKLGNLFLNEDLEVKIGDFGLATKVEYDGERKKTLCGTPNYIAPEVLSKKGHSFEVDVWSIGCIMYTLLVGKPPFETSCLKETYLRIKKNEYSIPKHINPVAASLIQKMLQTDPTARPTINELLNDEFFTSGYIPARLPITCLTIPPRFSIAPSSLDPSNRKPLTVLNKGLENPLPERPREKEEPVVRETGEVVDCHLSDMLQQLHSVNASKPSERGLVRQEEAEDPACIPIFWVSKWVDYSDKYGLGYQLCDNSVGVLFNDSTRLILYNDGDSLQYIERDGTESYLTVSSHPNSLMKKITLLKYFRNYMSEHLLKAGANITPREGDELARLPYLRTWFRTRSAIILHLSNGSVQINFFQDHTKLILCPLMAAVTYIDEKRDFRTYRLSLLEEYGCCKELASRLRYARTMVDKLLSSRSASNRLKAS
Chain of PIM1 (human) (P11309 whole entry, looked up): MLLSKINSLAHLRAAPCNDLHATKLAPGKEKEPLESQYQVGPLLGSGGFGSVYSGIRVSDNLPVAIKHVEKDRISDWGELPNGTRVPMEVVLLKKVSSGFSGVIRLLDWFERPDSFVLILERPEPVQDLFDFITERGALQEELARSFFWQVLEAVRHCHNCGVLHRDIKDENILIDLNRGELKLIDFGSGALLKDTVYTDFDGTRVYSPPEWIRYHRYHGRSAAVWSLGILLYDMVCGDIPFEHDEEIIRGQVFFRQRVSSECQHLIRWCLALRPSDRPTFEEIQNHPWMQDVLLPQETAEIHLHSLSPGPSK
Chain of ZAP70 (human) (P43403 whole entry, looked up): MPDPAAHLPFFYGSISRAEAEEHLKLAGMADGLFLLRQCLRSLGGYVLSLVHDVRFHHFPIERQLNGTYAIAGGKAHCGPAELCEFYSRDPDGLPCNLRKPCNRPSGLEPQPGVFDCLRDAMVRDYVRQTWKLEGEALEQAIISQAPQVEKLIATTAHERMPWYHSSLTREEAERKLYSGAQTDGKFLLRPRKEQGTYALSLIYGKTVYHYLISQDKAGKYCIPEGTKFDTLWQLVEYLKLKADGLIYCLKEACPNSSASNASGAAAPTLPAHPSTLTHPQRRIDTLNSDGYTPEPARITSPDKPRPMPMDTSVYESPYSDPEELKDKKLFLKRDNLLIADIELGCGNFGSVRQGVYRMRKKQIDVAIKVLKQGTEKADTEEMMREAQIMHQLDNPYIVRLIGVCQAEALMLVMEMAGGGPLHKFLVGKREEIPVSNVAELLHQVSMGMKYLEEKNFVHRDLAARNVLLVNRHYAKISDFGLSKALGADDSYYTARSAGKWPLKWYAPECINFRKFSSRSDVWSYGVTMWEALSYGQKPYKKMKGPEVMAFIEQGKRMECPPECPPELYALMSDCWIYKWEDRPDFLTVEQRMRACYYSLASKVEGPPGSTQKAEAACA
Chain of MAPK15 (human) (Q8TD08 whole entry, looked up): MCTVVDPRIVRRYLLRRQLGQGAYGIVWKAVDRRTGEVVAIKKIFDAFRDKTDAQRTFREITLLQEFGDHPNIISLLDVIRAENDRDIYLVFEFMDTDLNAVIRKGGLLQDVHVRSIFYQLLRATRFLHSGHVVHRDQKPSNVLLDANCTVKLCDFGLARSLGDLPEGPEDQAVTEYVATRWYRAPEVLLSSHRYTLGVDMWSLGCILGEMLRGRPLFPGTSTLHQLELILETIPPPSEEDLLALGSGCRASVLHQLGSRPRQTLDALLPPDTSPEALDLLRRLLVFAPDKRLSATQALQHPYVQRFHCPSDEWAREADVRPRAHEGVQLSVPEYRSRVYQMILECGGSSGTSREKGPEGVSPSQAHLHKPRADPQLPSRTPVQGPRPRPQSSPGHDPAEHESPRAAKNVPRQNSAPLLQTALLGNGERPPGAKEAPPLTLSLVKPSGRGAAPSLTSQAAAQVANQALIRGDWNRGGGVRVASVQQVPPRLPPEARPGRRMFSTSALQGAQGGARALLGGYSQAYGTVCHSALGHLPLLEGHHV
Chain of LRRK2 (human), Q5S007 [G2019S] (Q5S007 whole entry G2019S, looked up): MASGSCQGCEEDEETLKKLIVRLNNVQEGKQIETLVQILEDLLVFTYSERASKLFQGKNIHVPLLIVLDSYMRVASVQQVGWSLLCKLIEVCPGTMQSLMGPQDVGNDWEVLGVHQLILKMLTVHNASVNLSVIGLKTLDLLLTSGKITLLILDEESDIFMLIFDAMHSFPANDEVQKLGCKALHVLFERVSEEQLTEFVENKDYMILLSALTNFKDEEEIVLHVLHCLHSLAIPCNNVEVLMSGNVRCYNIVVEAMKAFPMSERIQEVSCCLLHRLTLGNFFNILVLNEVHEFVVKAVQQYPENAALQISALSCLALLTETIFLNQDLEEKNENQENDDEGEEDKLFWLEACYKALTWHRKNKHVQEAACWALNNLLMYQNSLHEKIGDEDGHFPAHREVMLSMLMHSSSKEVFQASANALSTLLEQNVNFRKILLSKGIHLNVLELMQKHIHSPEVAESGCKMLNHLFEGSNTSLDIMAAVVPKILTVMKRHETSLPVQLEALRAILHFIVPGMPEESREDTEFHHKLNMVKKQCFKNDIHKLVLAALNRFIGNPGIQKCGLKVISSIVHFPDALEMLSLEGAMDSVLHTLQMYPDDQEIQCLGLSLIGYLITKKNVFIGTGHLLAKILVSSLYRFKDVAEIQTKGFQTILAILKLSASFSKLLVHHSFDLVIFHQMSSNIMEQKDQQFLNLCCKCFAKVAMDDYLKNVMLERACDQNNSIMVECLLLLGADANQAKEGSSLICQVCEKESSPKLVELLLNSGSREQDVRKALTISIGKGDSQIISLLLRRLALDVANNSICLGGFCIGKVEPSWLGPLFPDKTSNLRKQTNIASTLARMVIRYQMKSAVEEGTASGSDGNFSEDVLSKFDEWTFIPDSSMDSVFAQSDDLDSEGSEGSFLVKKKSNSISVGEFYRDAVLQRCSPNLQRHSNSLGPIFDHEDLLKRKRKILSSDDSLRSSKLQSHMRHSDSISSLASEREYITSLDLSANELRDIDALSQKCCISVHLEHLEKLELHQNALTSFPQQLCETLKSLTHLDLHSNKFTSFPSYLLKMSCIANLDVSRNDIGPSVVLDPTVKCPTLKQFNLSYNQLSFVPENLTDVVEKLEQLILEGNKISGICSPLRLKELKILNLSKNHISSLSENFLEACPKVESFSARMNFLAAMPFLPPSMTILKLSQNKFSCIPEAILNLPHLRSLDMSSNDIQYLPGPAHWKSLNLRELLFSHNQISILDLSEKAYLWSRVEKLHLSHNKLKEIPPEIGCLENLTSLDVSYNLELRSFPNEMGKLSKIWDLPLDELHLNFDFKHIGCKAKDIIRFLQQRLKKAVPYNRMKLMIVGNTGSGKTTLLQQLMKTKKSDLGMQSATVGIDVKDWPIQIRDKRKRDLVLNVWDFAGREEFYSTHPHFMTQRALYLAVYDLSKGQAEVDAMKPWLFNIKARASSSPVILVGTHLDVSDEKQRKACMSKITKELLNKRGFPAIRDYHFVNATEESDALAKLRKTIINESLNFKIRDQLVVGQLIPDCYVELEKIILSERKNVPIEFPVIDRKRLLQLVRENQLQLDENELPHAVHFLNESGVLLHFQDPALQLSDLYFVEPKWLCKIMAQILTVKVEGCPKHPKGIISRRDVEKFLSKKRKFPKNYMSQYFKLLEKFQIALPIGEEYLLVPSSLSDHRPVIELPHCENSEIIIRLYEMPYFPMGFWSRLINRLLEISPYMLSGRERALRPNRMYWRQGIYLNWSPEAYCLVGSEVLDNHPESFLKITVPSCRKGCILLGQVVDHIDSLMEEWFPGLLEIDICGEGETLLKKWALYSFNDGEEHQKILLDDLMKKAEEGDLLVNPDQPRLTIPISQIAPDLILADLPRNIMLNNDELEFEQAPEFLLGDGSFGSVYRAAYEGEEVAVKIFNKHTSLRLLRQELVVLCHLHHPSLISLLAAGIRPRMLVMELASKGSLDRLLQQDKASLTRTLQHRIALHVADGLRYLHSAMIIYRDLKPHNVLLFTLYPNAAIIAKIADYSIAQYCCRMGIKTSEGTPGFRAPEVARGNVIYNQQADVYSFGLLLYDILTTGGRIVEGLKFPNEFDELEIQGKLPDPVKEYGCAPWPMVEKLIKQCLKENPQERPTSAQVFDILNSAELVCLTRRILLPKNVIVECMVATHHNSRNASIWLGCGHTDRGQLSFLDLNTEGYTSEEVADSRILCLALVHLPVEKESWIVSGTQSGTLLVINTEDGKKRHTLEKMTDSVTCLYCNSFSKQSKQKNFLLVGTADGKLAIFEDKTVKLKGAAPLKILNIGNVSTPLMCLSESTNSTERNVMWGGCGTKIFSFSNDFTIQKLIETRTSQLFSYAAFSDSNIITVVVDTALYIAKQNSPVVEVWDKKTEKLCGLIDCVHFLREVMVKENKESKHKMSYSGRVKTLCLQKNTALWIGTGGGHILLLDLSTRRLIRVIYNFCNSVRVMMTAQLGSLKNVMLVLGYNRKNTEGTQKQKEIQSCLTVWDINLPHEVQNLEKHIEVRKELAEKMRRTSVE
Chain of CDK3 (human) (Q00526 whole entry, looked up): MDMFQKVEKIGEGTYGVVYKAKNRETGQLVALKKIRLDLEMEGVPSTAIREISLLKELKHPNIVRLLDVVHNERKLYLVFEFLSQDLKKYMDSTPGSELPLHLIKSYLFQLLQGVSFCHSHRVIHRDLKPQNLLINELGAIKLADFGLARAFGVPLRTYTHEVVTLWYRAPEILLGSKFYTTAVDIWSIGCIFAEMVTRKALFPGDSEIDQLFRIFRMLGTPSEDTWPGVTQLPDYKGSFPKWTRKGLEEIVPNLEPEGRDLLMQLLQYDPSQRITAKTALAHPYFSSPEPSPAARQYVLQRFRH

COCCNCCCn1c(C(=O)CF)c(-c2ccc(C)cc2)c2c(N)ncnc21
71%: FLT3 (human)
90%: MARK1 (human) | [5]
100%: CDK3 (human) | MUSK (human) | PRKCE (human) | MLTK (human) | [1] | DAPK1 (human) | PIK3CA (human) | PRKD1 (human) | PI4KB (human) | CAMK2G (human) | EPHB6 (human) | RIOK2 (human) | STK16 (human) | PIM1 (human) | [3] | HIPK3 (human) | TAOK2 (human) | MAP3K15 (human) | PLK1 (human) | PIK3C2B (human) | TAOK3 (human) | [4] | IRAK4 (human) | LIMK2 (human)
97%: MAPKAPK2 (human)
96%: [2] | NUAK2 (human) | MAPK15 (human)
99%: PRKCQ (human) | RAF1 (human)
92%: CDC42BPA (human) | EPHB2 (human)
63%: NEK11 (human)
81%: FRK (human)
98%: MAPK3 (human) | STK17A (human)
89%: EPHB4 (human)
82%: SIK2 (human)
85%: ZAP70 (human)
72%: BMPR2 (human)

Source: the kinase profiling compilation of Christmann-Franck et al. (2016)
